In patent US20230286930A1, “N -SUBSTITUTED 4-(1,3-ARYLOXAZOLO-2-YL)PHENYL COMPOUNDS FOR THE TREATMENT AND PROPHYLAXIS OF HEPATITIS B VIRUS INFECTION” (Hoffmann-La Roche Inc., priority 2020, published 2023):

Tests used:
HBsAg = experiment: PHH natural infection assay, HBsAg (alphalisa); type: cell-based, HBV; settings: Hepatitis B virus, read-out: HBsAg IC50
Procedure: (§1) Detailed procedures regarding primary human hepatocyte (PHH) HBV natural infection assay are described as below. One tube of frozen PHH (10 million cells) is thawed in 37° C. water bath and then transferred to 20 mL of PHH thawing medium (Sigma, InVitroGRO HT Medium, Cat. S03319) with gently mixing. The cells were then centrifuged at […] for 5 min, the supernatant was discarded and the tube was refilled with 25 mL of PHH plating medium (Sigma, InVitroGRO CP Medium, Cat. S03317). The tube was shaken very gently to re-suspend all cells, and then 50 μL of cells were transferred to each well 384-well collagen I coated plate with appropriate liquid handling equipment, e.g. Integra VIAFLO384 or Agilent Bravo. The cells were then cultured for 24 hours in a cell incubator. For HBV infection, after PHH attachment on the culture plate, the plating medium was removed and replenished with PHH culture medium containing HBV virus. The PHH culture medium was prepared with Dulbecco's Modified Eagle Medium (DMEM)/F12 (1:1 in volume ratio) containing 10% fetal bovine serum (Gibco, Cat. 10099141), 5 ng/mL human epidermal growth factor (Gibco, Cat.PHG0311L), 20 ng/mL dexamethasone (Sigma, Cat.D4902-100 mg), 250 ng/mL human recombinant insulin (Gibco, Cat.41400045) and 100 U/mL penicillin. HBV virus at 200 genome equivalent (GE) per cell with 4% PEG8000 (Sigma, Cat.P1458) containing culture medium were added to the PHH culture medium for infection. The cells were then cultured for 24 hours in cell incubator. Then the cell culture supernatant was removed. The HBV-infected PHH were cultured with sandwich culture method with PHH culture medium containing 1% DMSO and 0.25 mg/mL matrix gel for 72 hours. The supernatant was then refreshed with PHH culture medium containing different concentrations of testing compounds for two times with 72-hour interval. At the end of treatment, the supernatant was collected for viral markers measurements, including HBsAg, HBeAg, HBV DNA and cytotoxicity. HBsAg and HBeAg were detected using alphalisa method using their specific antibodies. For HBV DNA detection, HBV DNA Quantitative Fluorescence Diagnostic Kit (Sansure Biotech Inc.) was used following the manufacture's protocol. Cytotoxicity was determined using Cell Counting Kit-8 (CCK8, Dojindo Molecular Technologies, Inc.).
(§2) The compounds of the present invention were tested for their capacity to inhibit HBsAg and HBeAg as described herein.

HBeAg = experiment: PHH natural infection assay, HBeAg (alphalisa); type: cell-based, HBV; settings: Hepatitis B virus, read-out: HBeAg IC50
Procedure: as §1, §2

[1] = PHH natural infection assay, cytotoxicity (Cell Counting Kit-8); type: cell-based; settings: human
Procedure: as §1

## O=C(Nc1ccc(-c2nc3ccc(F)c(F)c3o2)cc1)C1CCS(=O)(=O)C1 (stereo not drawn) [Example 83, N-[4-(6,7-difluoro-1,3-benzoxazol-2-yl)phenyl]-1,1-dioxo-thiolane-3-carboxamide]
HBsAg
  IC50: 1790 nM
HBeAg
  IC50: 2540 nM
[1]
  CC50 at 144 h: > 100000 nM

## Cc1coc(C(=O)Nc2ccc(-c3nc4c(F)cccc4o3)cc2)n1 [Example 43, N-[4-(4-fluoro-1,3-benzoxazol-2-yl)phenyl]-4-methyl-oxazole-2-carboxamide]
HBsAg
  IC50: 1090 nM
HBeAg
  IC50: 1070 nM
[1]
  CC50 at 144 h: > 100000 nM

## Cc1ncc(C(=O)Nc2ccc(-c3nc4c(F)cccc4o3)cc2)o1 [Example 45, N-[4-(4-fluoro-1,3-benzoxazol-2-yl)phenyl]-2-methyl-oxazole-5-carboxamide]
HBsAg
  IC50: 1360 nM
HBeAg
  IC50: 1350 nM
[1]
  CC50 at 144 h: > 100000 nM

## CC1(C(=O)Nc2ccc(-c3nc4cccc(F)c4o3)cc2)CCOC1 (stereo not drawn) [Example 21, N-[4-(7-fluoro-1,3-benzoxazol-2-yl)phenyl]-3-methyl-tetrahydrofuran-3-carboxamide]
HBsAg
  IC50: 720 nM
HBeAg
  IC50: 850 nM
[1]
  CC50 at 144 h: > 100000 nM

## O=C(Nc1ccc(-c2nc3cc(Cl)ccc3o2)cc1)[C@H]1CCOC1 (single isomer, unassigned) [Example 87-b]
HBsAg
  IC50: 3960 nM
HBeAg
  IC50: 3800 nM
[1]
  CC50 at 144 h: > 100000 nM

## O=C(Nc1ccc(-c2nc3c(F)cccc3o2)cc1)C1CCS(=O)(=O)C1 (stereo not drawn) [Example 50, N-[4-(4-fluoro-1,3-benzoxazol-2-yl)phenyl]-1,1-dioxo-thiolane-3-carboxamide]
HBsAg
  IC50: 1200 nM
HBeAg
  IC50: 1510 nM
[1]
  CC50 at 144 h: > 100000 nM

## CC1(C(=O)Nc2ccc(-c3nc4cccc(F)c4o3)cc2)CCCO1 (stereo not drawn) [Example 35, N-[4-(7-fluoro-1,3-benzoxazol-2-yl)phenyl]-2-methyl-tetrahydrofuran-2-carboxamide]
HBsAg
  IC50: 1670 nM
HBeAg
  IC50: 1850 nM
[1]
  CC50 at 144 h: > 100000 nM

## CC(O)C(=O)Nc1ccc(-c2nc3c(F)cccc3o2)cc1 (stereo not drawn) [Example 52, N-[4-(4-fluoro-1,3-benzoxazol-2-yl)phenyl]-2-hydroxy-propanamide]
HBsAg
  IC50: 1720 nM
HBeAg
  IC50: 1780 nM
[1]
  CC50 at 144 h: > 100000 nM

## O=C(Nc1ccc(-c2nc3cc(Cl)ccc3o2)cc1)c1ccccn1 [Example 74, N-[4-(5-chloro-1,3-benzoxazol-2-yl)phenyl]pyridine-2-carboxamide]
HBsAg
  IC50: 4100 nM
HBeAg
  IC50: 5440 nM
[1]
  CC50 at 144 h: > 100000 nM

## O=C(Nc1ccc(-c2nc3ccc(Cl)cc3o2)cc1)C1CCS(=O)(=O)C1 (stereo not drawn) [Example 10, N-[4-(6-chloro-1,3-benzoxazol-2-yl)phenyl]-1,1-dioxo-thiolane-3-carboxamide]
HBsAg
  IC50: 6460 nM
HBeAg
  IC50: 4380 nM
[1]
  CC50 at 144 h: > 100000 nM

## CC(O)C(=O)Nc1ccc(-c2nc3ccc(F)cc3o2)cc1 (stereo not drawn) [Example 2, N-[4-(6-fluoro-1,3-benzoxazol-2-yl)phenyl]-2-hydroxy-propanamide]
HBsAg
  IC50: 1140 nM
HBeAg
  IC50: 1290 nM
[1]
  CC50 at 144 h: > 100000 nM

## O=C(Nc1ccc(-c2nc3cccc(F)c3o2)cc1)C1CCS(=O)(=O)CC1 [Example 18, N-[4-(7-fluoro-1,3-benzoxazol-2-yl)phenyl]-1,1-dioxo-thiane-4-carboxamide]
HBsAg
  IC50: 920 nM
HBeAg
  IC50: 960 nM
[1]
  CC50 at 144 h: > 100000 nM

## COC(=O)Nc1ccc(-c2nc3c(F)cccc3o2)cc1 [Example 58, methyl N-[4-(4-fluoro-1,3-benzoxazol-2-yl)phenyl]carbamate]
HBsAg
  IC50: 5960 nM
HBeAg
  IC50: 8770 nM
[1]
  CC50 at 144 h: > 100000 nM

## CCC1(C(=O)Nc2ccc(-c3nc4cccc(F)c4o3)cc2)COC1 [Example 39, 3-ethyl-N-[4-(7-fluoro-1,3-benzoxazol-2-yl)phenyl]oxetane-3-carboxamide]
HBsAg
  IC50: 6290 nM
HBeAg
  IC50: 9010 nM
[1]
  CC50 at 144 h: > 100000 nM

## O=C(Nc1ccc(-c2nc3c(F)cccc3o2)cc1)C12CC(F)(C1)C2 [Example 48, 3-fluoro-N-[4-(4-fluoro-1,3-benzoxazol-2-yl)phenyl]bicyclo[1.1.1]pentane-1-carboxamide]
HBsAg
  IC50: 760 nM
HBeAg
  IC50: 970 nM
[1]
  CC50 at 144 h: > 100000 nM

## O=C(Nc1ccc(-c2nc3ccc(F)cc3o2)cc1)C1CCOC1 (stereo not drawn) [Example 1, N-[4-(6-fluoro-1,3-benzoxazol-2-yl)phenyl]tetrahydrofuran-3-carboxamide]
HBsAg
  IC50: 770 nM
HBeAg
  IC50: 700 nM
[1]
  CC50 at 144 h: > 100000 nM

## COC(C)C(=O)Nc1ccc(-c2nc3cccnc3o2)cc1 (stereo not drawn) [Example 62, 2-methoxy-N-(4-oxazolo[5,4-b]pyridin-2-ylphenyl)propanamide]
HBsAg
  IC50: 1610 nM
HBeAg
  IC50: 3290 nM
[1]
  CC50 at 144 h: > 100000 nM

## CC(O)C(=O)Nc1ccc(-c2nc3cc(Cl)ccc3o2)cc1 (stereo not drawn) [Example 77, N-[4-(5-chloro-1,3-benzoxazol-2-yl)phenyl]-2-hydroxy-propanamide]
HBsAg
  IC50: 2850 nM
HBeAg
  IC50: 2540 nM
[1]
  CC50 at 144 h: > 100000 nM

## Cc1ncc(C(=O)Nc2ccc(-c3nc4ccc(F)c(F)c4o3)cc2)o1 [Example 81, N-[4-(6,7-difluoro-1,3-benzoxazol-2-yl)phenyl]-2-methyl-oxazole-5-carboxamide]
HBsAg
  IC50: 1430 nM
HBeAg
  IC50: 2060 nM
[1]
  CC50 at 144 h: > 100000 nM

## O=C(Nc1ccc(-c2nc3cccc(Cl)c3o2)cc1)C1CCS(=O)(=O)C1 (stereo not drawn) [Example 85, N-[4-(7-chloro-1,3-benzoxazol-2-yl)phenyl]-1,1-dioxo-thiolane-3-carboxamide]
HBsAg
  IC50: 2680 nM
HBeAg
  IC50: 1720 nM
[1]
  CC50 at 144 h: > 100000 nM

## O=C(Nc1ccc(-c2nc3cccc(F)c3o2)cc1)C1CC2CCC(C1)O2 (stereo not drawn) [Example 22, N-[4-(7-fluoro-1,3-benzoxazol-2-yl)phenyl]-8-oxabicyclo[3.2.1]octane-3-carboxamide]
HBsAg
  IC50: 960 nM
HBeAg
  IC50: 1230 nM
[1]
  CC50 at 144 h: > 100000 nM

## CC(C)(C)C(=O)Nc1ccc(-c2nc3cccc(F)c3o2)cc1 [Example 19, N-[4-(7-fluoro-1,3-benzoxazol-2-yl)phenyl]-2,2-dimethyl-propanamide]
HBsAg
  IC50: 680 nM
HBeAg
  IC50: 980 nM
[1]
  CC50 at 144 h: > 100000 nM

## O=C(Nc1ccc(-c2nc3cccc(F)c3o2)cc1)C1CC1 [Example 20, N-[4-(7-fluoro-1,3-benzoxazol-2-yl)phenyl]cyclopropanecarboxamide]
HBsAg
  IC50: 700 nM
HBeAg
  IC50: 690 nM
[1]
  CC50 at 144 h: > 100000 nM

## CC(C)OC(=O)Nc1ccc(-c2nc3c(F)cccc3o2)cc1 [Example 60, isopropyl N-[4-(4-fluoro-1,3-benzoxazol-2-yl)phenyl]carbamate]
HBsAg
  IC50: 5040 nM
HBeAg
  IC50: 3000 nM
[1]
  CC50 at 144 h: > 100000 nM

## O=C(Nc1ccc(-c2nc3cccc(F)c3o2)cc1)c1ccoc1 [Example 11, N-[4-(7-fluoro-1,3-benzoxazol-2-yl)phenyl]furan-3-carboxamide]
HBsAg
  IC50: 2060 nM
HBeAg
  IC50: 5620 nM
[1]
  CC50 at 144 h: > 100000 nM

## O=C(Nc1ccc(-c2nc3cccc(F)c3o2)cc1)C1CC1(F)F (stereo not drawn) [Example 27, 2,2-difluoro-N-[4-(7-fluoro-1,3-benzoxazol-2-yl)phenyl]cyclopropanecarboxamide]
HBsAg
  IC50: 1100 nM
HBeAg
  IC50: 710 nM
[1]
  CC50 at 144 h: > 100000 nM

## O=C(Nc1ccc(-c2nc3cccc(F)c3o2)cc1)C1CS(=O)(=O)C1 [Example 31, N-[4-(7-fluoro-1,3-benzoxazol-2-yl)phenyl]-1,1-dioxo-thietane-3-carboxamide]
HBsAg
  IC50: 1500 nM
HBeAg
  IC50: 2290 nM
[1]
  CC50 at 144 h: > 100000 nM

## CC(C)(C)C(=O)Nc1ccc(-c2nc3ccc(F)cc3o2)cc1 [Example 3, N-[4-(6-fluoro-1,3-benzoxazol-2-yl)phenyl]-2,2-dimethyl-propanamide]
HBsAg
  IC50: 1230 nM
HBeAg
  IC50: 1630 nM
[1]
  CC50 at 144 h: > 100000 nM

## O=C(Nc1ccc(-c2nc3c(F)cccc3o2)cc1)c1cccnc1 [Example 46, N-[4-(4-fluoro-1,3-benzoxazol-2-yl)phenyl]pyridine-3-carboxamide]
HBsAg
  IC50: 2230 nM
HBeAg
  IC50: 4530 nM
[1]
  CC50 at 144 h: > 100000 nM

## O=C(Nc1ccc(-c2nc3cccc(F)c3o2)cc1)C1CCSCC1 [Example 30, N-[4-(7-fluoro-1,3-benzoxazol-2-yl)phenyl]tetrahydrothiopyran-4-carboxamide]
HBsAg
  IC50: 1490 nM
HBeAg
  IC50: 1470 nM
[1]
  CC50 at 144 h: > 100000 nM

## CC(C)(C)C(=O)Nc1ccc(-c2nc3cc(F)ccc3o2)cc1 [Example 6, N-[4-(5-fluoro-1,3-benzoxazol-2-yl)phenyl]-2,2-dimethyl-propanamide]
HBsAg
  IC50: 1610 nM
HBeAg
  IC50: 5550 nM
[1]
  CC50 at 144 h: > 100000 nM
